Assay results from patent US20250320193A1, “OXOISOINDOLINYL SUBSTITUTED PIPERIDINEDIONE DERIVATIVE AND USE THEREOF” (GLUETACS THERAPEUTICS (SHANGHAI) CO., LTD., priority 2022, published 2025).

How the values were obtained:
[1] = molecular target: IKZF3 (Homo sapiens (Human), UniProt Q96SW2+Q9UKT9); test: Western blot, substrate protein expression in hPBMC: IKZF3; assay type: cell-based; details: hPBMC, compound 500 nM, 24 hours, Western blot
Summary of the method: (§1)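 hPBMC, 1×10^6 cells/mL, 24 h compound exposure; RIPA lysis, BCA protein assay, SDS-PAGE, NC membrane immunoblot. Densitometry vs internal control → % protein remaining; degradation % = 100% − remaining; DC50 = conc. at 50% of DMSO band signal.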

[2] = molecular target: IKZF1 (Homo sapiens (Human), UniProt Q13422+Q96SW2); test: Western blot, substrate protein expression in hPBMC: IKZF1; assay type: cell-based; details: hPBMC, compound 500 nM, 24 hours, Western blot
Summary of the method: as §1

[3] = molecular target: GSPT1 (Homo sapiens (Human), UniProt P15170+Q96SW2); test: Western blot, substrate protein expression in hPBMC: GSPT1; assay type: cell-based; details: hPBMC, compound 500 nM, 24 hours, Western blot
Summary of the method: as §1

[4] = molecular target: human Cereblon WT GST-tagged protein (Homo sapiens (Human), UniProt Q96SW2); test: CRBN-binding affinity, HTRF (CEREBLON BINDING kit, CISBIO); details: HTRF inhibitory activity
Summary of the method: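 HTRF competition format: test compound displaces Thalidomide-Red from GST-tagged human Cereblon WT, detected with a Eu-labelled anti-GST antibody. Percent CRBN binding inhibition was derived from the 620 nm signal, normalized to solvent-control and protein-free blank wells.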

Sequence of IKZF3 (Q9UKT9 whole entry): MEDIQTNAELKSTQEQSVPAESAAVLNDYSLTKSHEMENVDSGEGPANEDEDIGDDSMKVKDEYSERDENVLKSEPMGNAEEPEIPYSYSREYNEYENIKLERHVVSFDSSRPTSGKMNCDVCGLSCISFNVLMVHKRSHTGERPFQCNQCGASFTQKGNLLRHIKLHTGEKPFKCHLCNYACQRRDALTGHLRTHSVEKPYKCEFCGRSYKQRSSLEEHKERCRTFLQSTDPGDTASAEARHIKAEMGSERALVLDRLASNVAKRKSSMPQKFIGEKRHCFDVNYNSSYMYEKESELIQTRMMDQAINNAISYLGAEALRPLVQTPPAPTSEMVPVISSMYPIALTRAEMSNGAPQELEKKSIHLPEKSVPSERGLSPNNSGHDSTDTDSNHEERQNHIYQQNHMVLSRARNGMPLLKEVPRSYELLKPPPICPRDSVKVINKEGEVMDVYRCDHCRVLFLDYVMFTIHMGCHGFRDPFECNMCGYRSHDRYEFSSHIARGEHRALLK
Sequence of IKZF3 (Q96SW2 whole entry): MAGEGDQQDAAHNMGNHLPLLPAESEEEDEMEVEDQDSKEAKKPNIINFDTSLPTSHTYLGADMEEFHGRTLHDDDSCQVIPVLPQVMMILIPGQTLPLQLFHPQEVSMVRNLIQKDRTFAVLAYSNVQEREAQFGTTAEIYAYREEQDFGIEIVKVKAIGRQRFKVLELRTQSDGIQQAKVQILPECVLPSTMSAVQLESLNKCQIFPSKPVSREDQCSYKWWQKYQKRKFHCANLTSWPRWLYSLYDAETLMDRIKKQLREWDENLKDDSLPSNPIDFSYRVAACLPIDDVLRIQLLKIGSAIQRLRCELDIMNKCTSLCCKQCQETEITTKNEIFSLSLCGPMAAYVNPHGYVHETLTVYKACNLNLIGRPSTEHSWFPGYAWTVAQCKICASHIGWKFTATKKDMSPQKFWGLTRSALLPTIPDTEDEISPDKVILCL
Sequence of IKZF3 (Q16531 whole entry partner): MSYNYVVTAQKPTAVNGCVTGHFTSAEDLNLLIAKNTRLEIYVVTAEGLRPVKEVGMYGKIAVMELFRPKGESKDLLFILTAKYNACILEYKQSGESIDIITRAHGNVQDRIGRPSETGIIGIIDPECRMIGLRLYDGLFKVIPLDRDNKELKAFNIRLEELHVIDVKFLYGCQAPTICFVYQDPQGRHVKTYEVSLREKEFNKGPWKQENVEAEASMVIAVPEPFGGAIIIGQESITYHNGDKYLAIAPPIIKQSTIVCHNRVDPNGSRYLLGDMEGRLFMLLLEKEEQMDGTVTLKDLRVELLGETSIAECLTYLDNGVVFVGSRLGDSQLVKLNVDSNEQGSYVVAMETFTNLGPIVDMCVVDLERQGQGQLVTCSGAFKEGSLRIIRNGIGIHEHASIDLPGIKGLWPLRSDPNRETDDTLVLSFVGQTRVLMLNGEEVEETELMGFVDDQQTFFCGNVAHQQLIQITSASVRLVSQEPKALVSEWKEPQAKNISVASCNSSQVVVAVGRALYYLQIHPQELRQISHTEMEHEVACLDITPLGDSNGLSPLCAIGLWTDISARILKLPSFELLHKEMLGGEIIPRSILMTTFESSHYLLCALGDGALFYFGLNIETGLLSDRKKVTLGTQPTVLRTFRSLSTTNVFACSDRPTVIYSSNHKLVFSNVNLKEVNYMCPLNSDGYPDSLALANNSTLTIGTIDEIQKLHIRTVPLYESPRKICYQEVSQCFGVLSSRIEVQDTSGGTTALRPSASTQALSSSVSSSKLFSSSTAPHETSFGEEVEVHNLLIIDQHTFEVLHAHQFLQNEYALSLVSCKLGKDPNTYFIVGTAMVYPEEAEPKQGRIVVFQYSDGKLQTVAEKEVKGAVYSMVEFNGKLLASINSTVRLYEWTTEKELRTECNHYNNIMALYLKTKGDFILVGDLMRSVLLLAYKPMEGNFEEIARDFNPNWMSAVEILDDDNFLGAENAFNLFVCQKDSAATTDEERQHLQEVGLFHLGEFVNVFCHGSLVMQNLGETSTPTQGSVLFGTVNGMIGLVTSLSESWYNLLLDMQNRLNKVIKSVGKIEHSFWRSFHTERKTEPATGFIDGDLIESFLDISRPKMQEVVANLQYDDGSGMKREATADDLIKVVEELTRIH
Sequence of GSPT1 (P15170 whole entry): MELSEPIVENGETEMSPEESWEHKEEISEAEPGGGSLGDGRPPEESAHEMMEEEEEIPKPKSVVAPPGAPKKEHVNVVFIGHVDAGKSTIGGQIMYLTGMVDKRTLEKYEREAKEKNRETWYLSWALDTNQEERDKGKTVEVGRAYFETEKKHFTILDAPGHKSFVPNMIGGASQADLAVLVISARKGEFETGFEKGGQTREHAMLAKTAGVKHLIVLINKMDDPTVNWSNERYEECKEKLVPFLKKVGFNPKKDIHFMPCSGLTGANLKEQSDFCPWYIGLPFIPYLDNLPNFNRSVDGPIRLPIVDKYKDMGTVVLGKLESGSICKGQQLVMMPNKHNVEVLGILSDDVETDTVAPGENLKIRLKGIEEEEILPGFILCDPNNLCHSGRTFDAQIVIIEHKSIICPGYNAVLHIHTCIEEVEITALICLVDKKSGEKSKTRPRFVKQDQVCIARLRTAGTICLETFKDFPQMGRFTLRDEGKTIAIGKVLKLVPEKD
Sequence of GSPT1 (Q96SW2 whole entry): as the sequence (Q96SW2 whole entry) above
Sequence of GSPT1 (Q16531 whole entry partner): as the sequence (Q16531 whole entry partner) above
Sequence of human Cereblon WT GST-tagged protein (Q96SW2 whole entry): as the sequence (Q96SW2 whole entry) above
Sequence of IKZF1 (Q13422 whole entry): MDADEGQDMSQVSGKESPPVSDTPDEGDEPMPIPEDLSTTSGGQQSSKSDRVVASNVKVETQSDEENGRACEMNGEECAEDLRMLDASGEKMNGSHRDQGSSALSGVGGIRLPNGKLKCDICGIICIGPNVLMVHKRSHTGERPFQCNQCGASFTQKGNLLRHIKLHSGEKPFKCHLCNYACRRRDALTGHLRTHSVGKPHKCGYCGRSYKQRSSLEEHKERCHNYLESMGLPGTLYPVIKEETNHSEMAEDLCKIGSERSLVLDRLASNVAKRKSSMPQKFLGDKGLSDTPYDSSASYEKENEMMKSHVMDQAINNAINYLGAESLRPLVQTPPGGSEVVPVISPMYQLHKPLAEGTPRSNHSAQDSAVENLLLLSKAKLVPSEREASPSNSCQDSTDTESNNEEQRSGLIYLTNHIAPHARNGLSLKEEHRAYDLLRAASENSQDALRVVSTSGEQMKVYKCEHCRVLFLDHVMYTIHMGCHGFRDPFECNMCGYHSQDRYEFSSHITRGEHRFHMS
Sequence of IKZF1 (Q96SW2 whole entry): as the sequence (Q96SW2 whole entry) above
Sequence of IKZF1 (Q16531 whole entry partner): as the sequence (Q16531 whole entry partner) above

SMILES | substrate protein remaining % IKZF3 [1] | substrate protein remaining % IKZF1 [2] | substrate protein remaining % GSPT1 [3] | IC50 [4] [µM]
O=C1CCC(N2Cc3cc(CN4CCN(C5c6cc(Cl)ccc6-c6ccc(Cl)cc65)CC4)ccc3C2=O)C(=O)N1 (centres unmarked) [GT-06048, 3-(5-((4-(2,7-dichloro-9H-fluoren-9-yl)piperazin-1-yl)methyl)-1-oxoisoindolin-2-yl)piperidine-2,6-dione] | A (A represents 0% ≤ substrate protein remaining % ≤ 50%) | A (A represents 0% ≤ substrate protein remaining % ≤ 50%) | A (A represents 0% ≤ substrate protein remaining % ≤ 50%) | < 0.5
O=C1CCC(N2Cc3cc(CN4CC5CN(C(c6ccccc6)c6ccccc6)CC5C4)ccc3C2=O)C(=O)N1 (centres unmarked) [GT-06050, 3-(5-((5-benzhydrylhexahydropyrrolo[3,4-c]pyrrol-2 (1H)-yl)methyl)-1-oxoisoindolin-2-yl)piperidine-2,6-dione] | B (B represents substrate protein remaining % > 50%) | B (B represents substrate protein remaining % > 50%) | A (A represents 0% ≤ substrate protein remaining % ≤ 50%) | < 0.5
O=C1CCC(N2Cc3c(CN4CC5CN(C(c6ccccc6)c6ccccc6)CC5C4)cccc3C2=O)C(=O)N1 (centres unmarked) [GT-06052, 3-(4-((5-benzhydrylhexahydropyrrolo[3,4-c]pyrrol-2 (1H)-yl)methyl)-1-oxoisoindolin-2-yl)piperidine-2,6-dione] | B (B represents substrate protein remaining % > 50%) | B (B represents substrate protein remaining % > 50%) | A (A represents 0% ≤ substrate protein remaining % ≤ 50%) | < 0.5
CC1(C)CN(C(=O)c2ccc3c(c2)CN(C2CCC(=O)NC2=O)C3=O)CCN1C(c1ccccc1)c1ccccc1 (centres unmarked) [GT-06061, 3-(5-(4-benzhydryl-3,3-dimethylpiperazine-1-carbonyl)-1-oxoisoindolin-2-yl)piperidine-2,6-dione] | B (B represents substrate protein remaining % > 50%) | B (B represents substrate protein remaining % > 50%) | A (A represents 0% ≤ substrate protein remaining % ≤ 50%) | 0.5 to 1
O=C1CCC(N2Cc3cc(C(=O)N4CCC5(CCN(C(c6ccccc6)c6ccccc6)CC5)C4)ccc3C2=O)C(=O)N1 (centres unmarked) [GT-06063, 3-(5-(8-benzhydryl-2,8-diazaspiro[4.5]decane-2-carbonyl)-1-oxoisoindolin-2-yl)piperidine-2,6-dione] | B (B represents substrate protein remaining % > 50%) | B (B represents substrate protein remaining % > 50%) | A (A represents 0% ≤ substrate protein remaining % ≤ 50%) | 0.5 to 1
O=C1CCC(N2Cc3cc(C(=O)N4CCC5(CC4)CCN(C(c4ccccc4)c4ccccc4)CC5)ccc3C2=O)C(=O)N1 (centres unmarked) [GT-06065, 3-(5-(9-benzhydryl-3,9-diazaspiro[5.5]undecane-3-carbonyl)-1-oxoisoindolin-2-yl)piperidine-2,6-dione] | B (B represents substrate protein remaining % > 50%) | B (B represents substrate protein remaining % > 50%) | A (A represents 0% ≤ substrate protein remaining % ≤ 50%) | < 0.5
O=C1CCC(N2Cc3cc(C(=O)N4CC5CN(C(c6ccccc6)c6ccccc6)CC5C4)ccc3C2=O)C(=O)N1 (centres unmarked) [GT-06067, 3-(5-(5-benzhydryloctahydropyrrolo[3,4-c]pyrrole-2-carbonyl)-1-oxoisoindolin-2-yl)piperidine-2,6-dione] | B (B represents substrate protein remaining % > 50%) | B (B represents substrate protein remaining % > 50%) | A (A represents 0% ≤ substrate protein remaining % ≤ 50%) | 0.5 to 1
O=C1CCC(N2Cc3cc(C(=O)N4CCN(C(c5ccccc5)c5ccccc5)CC4C(F)(F)F)ccc3C2=O)C(=O)N1 (centres unmarked) [GT-06071, 3-(5-(4-benzhydryl-2-(trifluoromethyl)piperazine-1-carbonyl)-1-oxoisoindolin-2-yl)piperidine-2,6-dione] | B (B represents substrate protein remaining % > 50%) | B (B represents substrate protein remaining % > 50%) | A (A represents 0% ≤ substrate protein remaining % ≤ 50%) | 0.5 to 1
O=C1CCC(N2Cc3cc(C(=O)N4CCN(C(c5ccccc5)c5ccccc5)CC4C(F)(F)F)cc(F)c3C2=O)C(=O)N1 (centres unmarked) [GT-06090, 3-(5-(4-benzhydryl-2-(trifluoromethyl)piperazine-1-carbonyl)-7-fluoro-1-oxoisoindolin-2-yl)piperidine-2,6-dione] | B (B represents substrate protein remaining % > 50%) | B (B represents substrate protein remaining % > 50%) | A (A represents 0% ≤ substrate protein remaining % ≤ 50%) | 1 to 1.9
C[C@@H]1CN(C(c2ccccc2)c2ccccc2)CCN1C(=O)c1ccc2c(c1)CN(C1CCC(=O)NC1=O)C2=O (stereo partly drawn) [GT-06092, 3-(5-((R)-4-benzhydryl-2-methylpiperazine-1-carbonyl)-1-oxoisoindolin-2-yl)piperidine-2,6-dione] | B (B represents substrate protein remaining % > 50%) | B (B represents substrate protein remaining % > 50%) | A (A represents 0% ≤ substrate protein remaining % ≤ 50%) | < 0.5
C[C@@H]1CN(C(c2ccccc2)c2ccccc2)CCN1C(=O)c1cc(F)c2c(c1)CN(C1CCC(=O)NC1=O)C2=O (stereo partly drawn) [GT-06093, 3-(5-((R)-4-benzhydryl-2-methylpiperazine-1-carbonyl)-7-fluoro-1-oxoisoindolin-2-yl)piperidine-2,6-dione] | B (B represents substrate protein remaining % > 50%) | B (B represents substrate protein remaining % > 50%) | A (A represents 0% ≤ substrate protein remaining % ≤ 50%) | 0.5 to 1
O=C1CCC(N2Cc3cc(CN4CCN(C(c5ccccc5)c5ccccc5)CC4C(F)(F)F)ccc3C2=O)C(=O)N1 (centres unmarked) [GT-06095, 3-(5-((4-benzhydryl-2-(trifluoromethyl)piperazin-1-yl)methyl)-1-oxoisoindolin-2-yl)piperidine-2,6-dione] | B (B represents substrate protein remaining % > 50%) | B (B represents substrate protein remaining % > 50%) | A (A represents 0% ≤ substrate protein remaining % ≤ 50%) | 0.5 to 1
O=C1CCC(N2Cc3c(ccc(CN4CCN(C(c5ccccc5)c5ccccc5)CC4C(F)(F)F)c3F)C2=O)C(=O)N1 (centres unmarked) [GT-06096, 3-(5-((4-benzhydryl-2-(trifluoromethyl)piperazin-1-yl)methyl)-4-fluoro-1-oxoisoindolin-2-yl)piperidine-2,6-dione] | A (A represents 0% ≤ substrate protein remaining % ≤ 50%) | B (B represents substrate protein remaining % > 50%) | A (A represents 0% ≤ substrate protein remaining % ≤ 50%) | 0.5 to 1
O=C1CCC(N2Cc3cc(CN4CCN(C(c5ccccc5)c5ccccc5)CC4C(F)(F)F)c(F)cc3C2=O)C(=O)N1 (centres unmarked) [GT-06097, 3-(5-((4-benzhydryl-2-(trifluoromethyl)piperazin-1-yl)methyl)-6-fluoro-1-oxoisoindolin-2-yl)piperidine-2,6-dione] | B (B represents substrate protein remaining % > 50%) | B (B represents substrate protein remaining % > 50%) | A (A represents 0% ≤ substrate protein remaining % ≤ 50%) | 0.5 to 1
O=C1CCC(N2C(=O)c3ccc(CN4CCN(C(c5ccccc5)c5cccnc5)CC4)cc3C2=O)C(=O)N1 (centres unmarked) [GT-06114, 2-(2,6-dioxopiperidin-3-yl)-5-((4-(phenyl(pyridin-3-yl)methyl)piperazin-1-yl)methyl) isoindoline-1,3-dione] | B (B represents substrate protein remaining % > 50%) | B (B represents substrate protein remaining % > 50%) | A (A represents 0% ≤ substrate protein remaining % ≤ 50%) | 1 to 1.9
O=C1CCC(N2Cc3cccc(CN4CCN(C(c5cccc(F)c5)c5cccc(F)c5)CC4)c3C2=O)C(=O)N1 (centres unmarked) [GT-06117, 3-(7-((4-(bis(3-fluorophenyl)methyl)piperazin-1-yl)methyl)-1-oxoisoindolin-2-yl)piperidine-2,6-dione] | B (B represents substrate protein remaining % > 50%) | B (B represents substrate protein remaining % > 50%) | A (A represents 0% ≤ substrate protein remaining % ≤ 50%) | 0.5 to 1
O=C1CCC(N2C(=O)c3ccc(C(=O)N4CCN(C(c5ccccc5F)c5ccccc5F)CC4)cc3C2=O)C(=O)N1 (centres unmarked) [GT-06141, 5-(4-(bis(2-fluorophenyl)methyl)piperazine-1-carbonyl)-2-(2,6-dioxopiperidin-3-yl) isoindoline-1,3-dione] | B (B represents substrate protein remaining % > 50%) | B (B represents substrate protein remaining % > 50%) | A (A represents 0% ≤ substrate protein remaining % ≤ 50%) | 0.5 to 1
